Measurements published in ChEMBL document CHEMBL1629425, “Antibacterial prenylated acylphloroglucinols from the fern Elaphoglossum yungense” (2010).
In brackets after ≈: the same amount, converted by molar mass. Activity calls are given as the source filed them. The calls are words filed in the database; no cut-off is given here.

Legend:
Staphylococcus aureus [1] = assay: Antibacterial activity against Staphylococcus aureus ATCC 6738 after 24 hrs by Broth micro dilution method; format: functional; conditions: ATCC 6738, 24 h
Pseudomonas aeruginosa [2] = assay: Antibacterial activity against Pseudomonas aeruginosa ATCC 27853 after 24 hrs by Broth micro dilution method; format: functional; conditions: ATCC 27853, 24 h
Staphylococcus aureus [3] = assay: Antibacterial activity against Staphylococcus aureus ATCC 6738 assessed as growth inhibition at 10 ug/ml after 24 hrs by Broth micro dilution method relative to control; format: functional; conditions: ATCC 6738, 24 h, read-out: GI
Pseudomonas aeruginosa [4] = assay: Antibacterial activity against Pseudomonas aeruginosa ATCC 27853 assessed as growth inhibition at 10 ug/ml after 24 hrs by Broth micro dilution method relative to control; format: functional; conditions: ATCC 27853, 24 h, read-out: GI
Staphylococcus aureus [5] = assay: increase in biofilm formation of Staphylococcus aureus ATCC 6738 at 10 ug/ml relative to control; format: functional, organism-based

Row | Structure (SMILES) | MBC (Staphylococcus aureus [1]) [µg/mL] | MIC (Staphylococcus aureus [1]) [µg/mL] | MBC (Pseudomonas aeruginosa [2]) [µg/mL] | MIC (Pseudomonas aeruginosa [2]) [µg/mL] | inhibition of growth at 10 µg/mL (Staphylococcus aureus [3]) [%] | inhibition of growth at 10 µg/mL (Pseudomonas aeruginosa [4]) [%] | Activity (Staphylococcus aureus [5])
1 | CCCC(=O)c1c(O)c2c(c(CC3=C(O)C(C)(C/C=C(\C)CCC=C(C)C)C(O)=C(C(C)=O)C3=O)c1O)OC(C)(C)C=C2 (stereo not given) [YUNGENSIN F] | 100 (≈ 169 µM) | 50 (≈ 84.4 µM) | 50 (≈ 84.4 µM) | 50 (≈ 84.4 µM) | 93 | 86 | inactive
2 | CCCC(=O)c1c(O)c(CC2=C(O)C(C)(C/C=C(\C)CCC=C(C)C)C(O)=C(C(C)=O)C2=O)c(O)c2c1OC(C)(CCC=C(C)C)C=C2 (stereo not given) [YUNGENSIN C] | 100 (≈ 151 µM) | 50 (≈ 75.7 µM) | 50 (≈ 75.7 µM) | 50 (≈ 75.7 µM) | 92 | 87 | –
3 | CCCC(=O)c1c(O)c(C/C=C(\C)CCC=C(C)C)c(O)c(CC2=C(O)C(C)(C/C=C(\C)CCC=C(C)C)C(O)=C(C(C)=O)C2=O)c1O (stereo not given) [YUNGENSIN E] | 200 (≈ 302 µM) | 100 (≈ 151 µM) | 200 (≈ 302 µM) | 100 (≈ 151 µM) | 87 | 87 | inactive
4 | CCCC(=O)c1c(O)c(CC2=C(O)C(C)(C/C=C(\C)CCC=C(C)C)C(O)=C(C(C)=O)C2=O)c(O)c2c1OC(C)(C)C=C2 (stereo not given) [YUNGENSIN A] | 50 (≈ 84.4 µM) | 10 (≈ 16.9 µM) | 50 (≈ 84.4 µM) | 10 (≈ 16.9 µM) | 99 | 99 | inactive
5 | CCCCCC(=O)c1c(O)c(CC2=C(O)C(C)(C/C=C(\C)CCC=C(C)C)C(O)=C(C(C)=O)C2=O)c(O)c2c1OC(C)(C)C=C2 (stereo not given) [YUNGENSIN B] | 100 (≈ 161 µM) | 10 (≈ 16.1 µM) | 50 (≈ 80.5 µM) | 10 (≈ 16.1 µM) | 99 | 99 | inactive
6 | CCCC(=O)c1c(O)c(CC=C(C)C)c(O)c(CC2=C(O)C(C)(C/C=C(\C)CCC=C(C)C)C(O)=C(C(C)=O)C2=O)c1O (stereo not given) [YUNGENSIN D] | > 200 | 100 (≈ 168 µM) | 100 (≈ 168 µM) | 50 (≈ 84.1 µM) | 83 | 86 | –
